According to patent US7173024B2, “Compounds having prolyl oligopeptidase inhibitory activity, methods for their preparation and their use” (Orion Corporation, priority 2001, dated 2007):

biological target: T1, pig brain prolyl oligopeptidase (Sus scrofa, UniProt P23687); test: Inhibition of prolyl oligopeptidase activity of pig brain (Suc-Gly-Pro-AMC, fluorometric); type: biochemical; conditions: pig brain homogenate supernatant, 30° C., pH 7.0
T1 construct: The brains were homogenized with a glass-teflon homogenisator; from tissue; host or cells: pig brain (excluding cerebellum and most of the brain stem), 10000 g supernatant of the homogenate
T1 sequence (P23687 whole entry): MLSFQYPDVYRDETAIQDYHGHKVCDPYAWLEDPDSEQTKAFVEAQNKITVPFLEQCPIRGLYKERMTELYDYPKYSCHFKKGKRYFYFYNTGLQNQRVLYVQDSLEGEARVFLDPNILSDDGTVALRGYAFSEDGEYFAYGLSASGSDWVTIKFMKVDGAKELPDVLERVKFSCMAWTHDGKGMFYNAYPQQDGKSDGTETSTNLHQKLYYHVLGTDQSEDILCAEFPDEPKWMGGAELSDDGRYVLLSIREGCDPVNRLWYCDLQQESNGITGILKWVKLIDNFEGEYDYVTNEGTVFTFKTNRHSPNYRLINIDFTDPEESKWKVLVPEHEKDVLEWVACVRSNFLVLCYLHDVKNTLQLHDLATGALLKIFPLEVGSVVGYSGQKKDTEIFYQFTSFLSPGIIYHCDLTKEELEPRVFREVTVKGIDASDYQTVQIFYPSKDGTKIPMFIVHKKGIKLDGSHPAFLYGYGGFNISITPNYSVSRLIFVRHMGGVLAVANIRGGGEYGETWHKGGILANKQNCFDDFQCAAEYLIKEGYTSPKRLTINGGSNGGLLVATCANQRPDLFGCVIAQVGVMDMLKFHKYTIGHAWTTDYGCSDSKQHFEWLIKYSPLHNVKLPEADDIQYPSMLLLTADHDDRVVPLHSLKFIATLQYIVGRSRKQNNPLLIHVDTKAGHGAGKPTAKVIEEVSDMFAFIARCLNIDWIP
Experimental: The whole pig brains, excluding cerebellum and most of the brain stem, of three pigs were placed in liquid nitrogen within 30 min from killing and stored at −80° C. until homogenized. The brains were homogenized with a glass-teflon homogenisator in 3 volumes (w/v) of ice-cold 0.1 M sodium-potassium phosphate buffer (pH 7.0) and the homogenates were centrifuged for 20 min at 4° C. at 10000 g. The supernatants were collected, pooled and stored in small aliquots at −80° C. until used. The supernatant was thawn in ice just before activity assay and diluted in a ratio 1:2 with homogenisation buffer (=enzyme preparation).
In the microplate assay procedure, 10 μl of enzyme preparation was preincubated with 460 μl of 0.1 M sodium-potassium phosphate buffer (pH 7.0) and 5 μl of a solution of novel compound dissolved in DMSO and diluted with 0.1 M sodium-potassium phosphate buffer at 30° C. for 30 min. The controls contained 10 μl enzyme preparation and 465 μl of 0.1 M sodium-potassium phosphate buffer (pH 7.0). The reaction was initiated by adding 25 μl of 4 mM Suc-Gly-Pro-AMC (AMC: 7-amido-4-methylcoumarin) dissolved in 0.1 M sodium-potassium phosphate buffer (pH 7.0), and the mixture was incubated at 30° C. for 60 min. The reaction was terminated by adding 500 μl of 1 M sodium acetate buffer (pH 4.2).
Formation of 7-amido-4-methylcoumarin was determined fluorometrically with microplate fluorescence reader (excitation at 360 nm and emission at 460 nm). The final concentration of novel compounds in the assay mixture varied from 10^−12 M to 10^−4 M.
The prolyl oligopeptidase activity was calculated with the following formula in the presence of various concentrations of novel compounds. To reveal the inhibitory potency of the novel compound, activities (% of control) were plotted against the log concentration of the compound, and the IC50 value was determined by non-linear regression utilizing GraphPad Prism software.
Activity (% of control)=a/b×100, where • a=flourescence intensity in the presence of a novel compound • […] a novel compound (control)

IC50	Structure (SMILES)
0.8 nM	N#C[C@@H]1CCCN1C(=O)[C@@H]1CCCN1C(=O)CCC(=O)N1CCCCCC1 [Example 18, Succinic acid hexamethyleneimine L-prolyl-2(S)-cyanopyrrolidine amide]
0.8 nM	N#C[C@@H]1CCCN1C(=O)[C@@H]1CCCN1C(=O)CCC(=O)N1CCC[C@H]1C(=O)N1CCC[C@H]1C#N [Example 21, Succinic acid di-(L-prolyl-2(S)-cyanopyrrolidine)amide]
78 nM	O=C(C1CCCC1)[C@@H]1CCCN1C(=O)c1cccc(C(=O)N2CCC[C@H]2C(=O)C2CCCC2)c1 [Example 41, Isophthalic acid di-(2(S)-(cyclopentanecarbonyl)pyrrolidine)amide]
87 nM	C[C@H](NC(=O)c1cccc(C(=O)N[C@@H](C)C(=O)N2CCCC2)c1)C(=O)N1CCCC1 [Example 46, Isophthalic acid di-(L-alanyl-pyrrolidine)amide]
28 nM	O=C(CCCC(=O)N1CCC[C@H]1C(=O)N1CCCC1)N1CCCCCC1 [Example 48, Glutaric acid hexamethyleneimine L-prolyl-pyrrolidine amide]

Further lines, the compound ahead of its results:

Structure (SMILES)	IC50
O=C([C@@H]1CCCN1C(=O)c1cccc(C(=O)N2CCC[C@H]2C(=O)N2CCCC2)c1)N1CCCC1 [Example 11, Isophthalic acid di-(L-prolyl-pyrrolidine)amide]	26 nM
O=C(CO)[C@@H]1CCCN1C(=O)[C@@H]1CCCN1C(=O)c1cccc(C(=O)N2CCC[C@H]2C(=O)N2CCCC2)c1 [Example 22, Isophthalic acid L-prolyl-2(S)-(hydroxyacetyl)pyrrolidine L-prolyl-pyrrolidine amide]	0.4 nM
CSCC[C@H](NC(=O)c1cccc(C(=O)N[C@@H](CCSC)C(=O)N2CCCC2)c1)C(=O)N1CCCC1 [Example 47, Isophthalic acid di-(L-methionyl-pyrrolidine)amide]	110 nM
O=C(NC(Cc1ccccc1)C(=O)N1CCCC1)c1cccc(C(=O)NC(Cc2ccccc2)C(=O)N2CCCC2)c1 [Example 50, Isophtalic acid di-(L-phenylalanyl-pyrrolidine)amide]	79 nM
